{"source": "patent US11077100B2", "about": "“Tetrahydroquinoline derivatives as P2X7 receptor antagonists” (RaQualia Pharma Inc., priority 2017, dated 2021)", "data": [{"target": "human P2X7 (Homo sapiens (Human), UniProt Q99572)", "sequence (Q99572 whole entry)": "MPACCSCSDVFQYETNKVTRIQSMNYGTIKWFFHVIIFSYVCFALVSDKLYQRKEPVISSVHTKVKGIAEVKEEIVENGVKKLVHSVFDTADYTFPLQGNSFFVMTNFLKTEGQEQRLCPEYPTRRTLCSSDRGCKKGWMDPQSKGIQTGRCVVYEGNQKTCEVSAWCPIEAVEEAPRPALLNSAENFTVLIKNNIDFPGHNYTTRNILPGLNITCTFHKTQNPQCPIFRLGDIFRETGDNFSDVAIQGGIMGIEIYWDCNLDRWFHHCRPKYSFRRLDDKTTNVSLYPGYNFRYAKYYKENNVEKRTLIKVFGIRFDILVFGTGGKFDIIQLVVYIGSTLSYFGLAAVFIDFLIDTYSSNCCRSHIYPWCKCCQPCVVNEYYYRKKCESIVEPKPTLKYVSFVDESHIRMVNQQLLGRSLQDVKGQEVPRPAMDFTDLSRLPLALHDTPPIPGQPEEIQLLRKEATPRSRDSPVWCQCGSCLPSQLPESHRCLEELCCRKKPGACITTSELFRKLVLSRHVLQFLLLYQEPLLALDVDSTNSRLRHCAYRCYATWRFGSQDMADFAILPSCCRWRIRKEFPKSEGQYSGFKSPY", "experiment": "Human P2X7 functional assay (Ca2+ influx, Fluo-4, FDSS)", "format": "cell-based", "settings": "antagonistic activity with respect to the human P2X7 receptor; BzATP final concentration 80 microM", "protocol": "The ability of the 5,6,7,8-tetrahydroquinoline and 6,7-dihydro-5H-cyclopenta[b]pyridine derivatives of the formula (I) to inhibit the P2X7 channel was measured by Ca^2+ influx assay and electrophysiology assay described below.\nHuman P2X7 Functional Assay\nThe functional activity of compounds was determined by measuring changes in intracellular calcium concentration using a Ca^2+-sensitive fluorescent dye, Fluo-4 (Molecular Probes). The changes in fluorescent signal were monitored by the cell imaging technology by Hamamatsu Photonics's Functional Drug Screening System (FDSS). Increases in intracellular Ca^2+ concentration were readily detected upon activation with BzATP.\nHEK293 cells stably expressing human P2X7 (GenBank accession number BC011913) carrying a C-terminal FLAG tag were grown in T225 flasks, in a 5% CO2 humidified incubator to about 80% confluence. Media composition consisted of Dulbecco's Modified Eagle Medium (high glucose), 10% fetal bovine serum ([…]), 100 units/[…] Penicillin, 100 microg/mL Streptomycin and 250 microg/mL Geneticine.\n1. Plate-out HEK293-human P2X7 cells (40 microL medium containing 10,000 cells per well) into poly-D-lysine coated 384-well plates (Corning) at 24 h prior to assay.\n2. Incubate at 37° C. in 5% CO2.\n3. Incubate the plate at 37° C. in 5% CO2 for 1 h.\n5. Test compounds were prepared at 100× the test concentration in DMSO by serial dilution with Biomek-FX liquid handling instrument. 33× diluted compound solutions in assay buffer were prepared in intermediate compound plate with Biomek-NX liquid handling instrument. A further 3× dilution occurred in below steps 6 and 7.\n6. Add 20 microL of 33× diluted compound solutions into each well and leave the plate for 10 min under the dark at room temperature.\n7. Measure activity by FDSS as follows: • Set the assay plate on the stacker of FDSS. • Start the detection of fluorescence intensity at 540 nm by 480 nm exicitation. • After 30 seconds, add 20 microL of assay buffer containing 240 microM BzATP (final concentration 80 microM).\nIC50 values for compounds of the present invention were determined from 7-point dose-response studies. Curves were generated using the average of duplicate wells for each data point. Finally, the IC50 values are calculated with the best-fit dose curve determined by XLfit (ID Business Solutions Ltd.).", "units": {"IC50": "µM"}, "values": [{"smiles": "CC(C)(C)CCNC(=O)[C@]1(F)CC[C@H](O)c2ncccc21", "note": "[Example 227, (5S,8S)-N-(3,3-dimethylbutyl)-5-fluoro-8-hydroxy-5,6,7,8-tetrahydroquinoline-5-carboxamide]", "IC50": "1 to 3"}, {"smiles": "O=C(NCc1ccc(Cl)cc1F)[C@H]1CC[C@H](O)c2ncccc21", "note": "[Example 77, (5S,8S)-N-(4-chloro-2-fluorobenzyl)-8-hydroxy-5,6,7,8-tetrahydroquinoline-5-carboxamide]", "IC50": "0.301 to 1"}, {"smiles": "O=C(NCC1(c2ccc(F)cc2)CC1)[C@]1(F)CC[C@H](O)c2ncccc21", "note": "[Example 220, (5S,8S)-5-fluoro-N-((1-(4-fluorophenyl)cyclopropyl)methyl)-8-hydroxy-5,6,7,8-tetrahydroquinoline-5-carboxamide]", "IC50": "0.301 to 1"}, {"smiles": "O=C(N[C@H]1CCCc2ccccc21)[C@]1(F)CC[C@H](O)c2ncccc21", "note": "[Example 218, (5S,8S)-5-fluoro-8-hydroxy-N-((S)-1,2,3,4-tetrahydronaphthalen-1-yl)-5,6,7,8-tetrahydroquinoline-5-carboxamide]", "IC50": "0.301 to 1"}, {"smiles": "O=C1CC[C@@](F)(C(=O)NCc2ncc(Cl)cc2Cl)c2cccnc21", "note": "[Example 255, (S)-N-((3,5-dichloro-pyridin-2-yl)methyl)-5-fluoro-8-oxo-5,6,7,8-tetrahydroquinoline-5-carboxamide]", "IC50": "0.101 to 0.3"}, {"smiles": "O=C(NCc1ccc(Cl)cc1F)[C@@H]1CC[C@@H](O)c2ncccc21", "note": "[Example 95, (5R,8R)-N-(4-chloro-2-fluorobenzyl)-8-hydroxy-5,6,7,8-tetrahydroquinoline-5-carboxamide]", "IC50": "1 to 3"}, {"smiles": "O=C(NCc1cccc(C(F)(F)F)c1Cl)[C@H]1CC[C@H](O)c2ncccc21", "note": "[Example 86, (5S,8S)-N-(2-chloro-3-(trifluoromethyl)benzyl)-8-hydroxy-5,6,7,8-tetra-hydroxyqinoline-5-carboxamide]", "IC50": "0.101 to 0.3"}, {"smiles": "O=C(NC1CC1c1ccc(Cl)cc1Cl)[C@]1(F)CC[C@@](O)(CO)c2ncccc21", "note": "(stereo partly drawn) [Example 331, (5S,8S)-N-((trans)-2-(2,4-dichlorophenyl)cyclopropyl)-5-fluoro-8-hydroxy-8-(hydroxymethyl)-5,6,7,8-tetrahydroquinoline-5-carboxamide]", "IC50": "0.05 to 0.1"}, {"smiles": "O=C(NCCc1ccc(Cl)cc1Cl)[C@]1(F)CC[C@@](O)(CO)c2ncccc21", "note": "[Example 330, (5S,8S)-N-(2,4-dichlorophenethyl)-5-fluoro-8-hydroxy-8-(hydroxymethyl)-5,6,7,8-tetrahydroquinoline-5-carboxamide]", "IC50": "0.301 to 1"}, {"smiles": "C[C@@]1(O)CC[C@@](F)(C(=O)NCC2(N3CCOCC3)CCCCC2)c2cccnc21", "note": "[Example 275, (5S,8R)-5-fluoro-8-hydroxy-8-methyl-N-((1-morpholinocyclohexyl)methyl)-5,6,7,8-tetrahydroquinoline-5-carboxamide]", "IC50": "1 to 3"}, {"smiles": "O=C(NCc1ccc(F)cc1C(F)(F)F)[C@H]1CC[C@H](O)c2ncccc21", "note": "[Example 75, (5S,8S)-N-(4-fluoro-2-(tri-fluoromethyl)benzyl)-8-hydroxy-5,6,7,8-tetra-hydroquinoline-5-carbox-amide]", "IC50": "1 to 3"}, {"smiles": "Cc1ccc(CNC(=O)[C@]2(F)CC[C@@H](O)c3ncccc32)c(Cl)c1", "note": "[Example 125, (5S,8R)-N-(2-chloro-4-methylbenzyl)-5-fluoro-8-hydroxy-5,6,7,8-hydroquinoline-5-carboxamide]", "IC50": "0.101 to 0.3"}, {"smiles": "O=C(NCc1ccc(Cl)cc1Cl)[C@@]1(F)CC[C@H](O)c2ncccc21", "note": "[Example 105, (5R,8S)-N-(2,4-dichlorobenzyl)-5-fluoro-8-hydroxy-5,6,7,8-tetrahydroquinoline-5-carboxamide]", "IC50": "0.301 to 1"}, {"smiles": "O=C(NCc1ncc(C(F)(F)F)cc1Cl)[C@]1(F)CC[C@H](O)c2ncccc21", "note": "[Example 194, (5S,8S)-N-((3-chloro-5-(trifluoromethyl)pyridin-2-yl)methyl)-5-fluoro-8-hydroxy-5,6,7,8-tetrahydroquinoline-5-carboxamide]", "IC50": "< 0.05"}, {"smiles": "Cc1cnc2c(c1)[C@](F)(C(=O)NCc1ccc(F)cc1Cl)CC[C@@H]2O", "note": "[Example 244, (5S,8S)-N-(2-chloro-4-fluorobenzyl)-5-fluoro-8-hydroxy-3-methyl-5,6,7,8-tetrahydroquinoline-5-carboxamide]", "IC50": "1 to 3"}, {"smiles": "Cc1ccc(CNC(=O)[C@@]2(F)CC[C@@H](O)c3ncccc32)c(Cl)c1", "note": "[Example 166, (5R,8R)-N-(2-chloro-4-methylbenzyl)-5-fluoro-8-hydroxy-5,6,7,8-tetrahydroquinoline-5-carboxamide]", "IC50": "0.101 to 0.3"}, {"smiles": "Cc1cnc2c(c1)[C@](F)(C(=O)NCc1ccc(Cl)cc1Cl)CC[C@@H]2O", "note": "[Example 243, (5S,8S)-N-(2,4-dichlorobenzyl)-5-fluoro-8-hydroxy-3-methyl-5,6,7,8-tetrahydroquinoline-5-carboxamide]", "IC50": "0.301 to 1"}, {"smiles": "O=C(NCc1ccc(F)c(F)c1)[C@]1(F)CC[C@H](O)c2ncccc21", "note": "[Example 202, (5S,8S)-N-(3,4-difluorobenzyl)-5-fluoro-8-hydroxy-5,6,7,8-tetrahydroquinoline-5-carboxamide]", "IC50": "0.05 to 0.1"}, {"smiles": "O=C(NCc1c(Cl)cccc1Cl)[C@@]1(F)CC[C@@H](O)c2ncccc21", "note": "[Example 138, (5R,8R)-N-(2,6-dichlorobenzyl)-5-fluoro-8-hydroxy-5,6,7,8-tetrahydroquinoline-5-carboxamide]", "IC50": "0.101 to 0.3"}, {"smiles": "O=C(NCc1ccc(Cl)cc1F)[C@H]1CC[C@@H](O)c2ncccc21", "note": "[Example 96, (5S,8R)-N-(4-chloro-2-fluorobenzyl)-8-hydroxy-5,6,7,8-tetrahydroquinoline-5-carboxamide]", "IC50": "1 to 3"}, {"smiles": "C[C@@H](NC(=O)[C@@]1(F)CC[C@@H](O)c2ncccc21)c1ccc(Cl)cc1Cl", "note": "[Example 155, (5R,8R)-N-((R)-1-(2,4-dichlorophenyl)ethyl)-5-fluoro-8-hydroxy-5,6,7,8-tetrahydroquinoline-5-carboxamide]", "IC50": "0.05 to 0.1"}, {"smiles": "O=C(NCCOc1ccccc1)[C@]1(F)CC[C@H](O)c2ncccc21", "note": "[Example 228, (5S,8S)-5-fluoro-8-hydroxy-N-(2-phenoxyethyl)-5,6,7,8-tetrahydroquinoline-5-carboxamide]", "IC50": "1 to 3"}, {"smiles": "COc1ccc(CNC(=O)[C@]2(F)CC[C@H](O)c3ncccc32)c(C(F)(F)F)c1", "note": "[Example 211, (5S,8S)-5-fluoro-8-hydroxy-N-(4-methoxy-2-(trifluoromethyl)benzyl)-5,6,7,8-tetrahydroquinoline-5-carboxamide]", "IC50": "0.101 to 0.3"}, {"smiles": "O=C1CCC(C(=O)NCC2CCCCCC2)c2cccnc21", "note": "(centres unmarked) [Example 5, N-(cycloheptylmethyl)-8-oxo-5,6,7,8-tetrahydro-quinoline-5-carboxamide]", "IC50": "1 to 3"}, {"smiles": "O=C(NCc1cc(F)c(F)c(F)c1)[C@]1(F)CC[C@H](O)c2ncccc21", "note": "[Example 200, (5S,8S)-5-fluoro-8-hydroxy-N-(3,4,5-trifluorobenzyl)-5,6,7,8-tetrahydroquinoline-5-carboxamide]", "IC50": "0.05 to 0.1"}, {"smiles": "O=C(NCc1c(F)cccc1F)[C@]1(F)CC[C@H](O)c2ncccc21", "note": "[Example 217, (5S,8S)-N-(2,6-difluorobenzyl)-5-fluoro-8-hydroxy-5,6,7,8-tetrahydroquinoline-5-carboxamide]", "IC50": "0.101 to 0.3"}, {"smiles": "O=C1CC(C(=O)NCc2cccc(C(F)(F)F)c2Cl)c2cccnc21", "note": "(centres unmarked) [Example 17, N-(2-chloro-3-(trifluoromethyl)benzyl)-7-oxo-6,7-dihydro-5H-cyclopenta[b] pyridine-5-carboxamide]", "IC50": "0.05 to 0.1"}, {"smiles": "O=C(NCc1ccc(Br)cc1F)[C@H]1CC[C@H](O)c2ncccc21", "note": "[Example 79, (5S,8S)-N-(4-bromo-2-fluorobenzyl)-8-hydroxy-5,6,7,8-tetrahydroquinoline-5-carboxamide]", "IC50": "0.301 to 1"}, {"smiles": "O=C(NCc1ccc(F)c(F)c1F)[C@H]1CC[C@H](O)c2ncccc21", "note": "[Example 71, (5S,8S)-8-hydroxy-N-(2,3,4-trifluorobenzyl)-5,6,7,8-tetrahydroquinoline-5-carboxamide]", "IC50": "0.301 to 1"}, {"smiles": "O=C(NCc1c(Cl)ccc(Cl)c1Cl)[C@@]1(F)CC[C@@H](O)c2ncccc21", "note": "[Example 164, (5R,8R)-5-fluoro-8-hydroxy-N-(2,3,6-trichlorobenzyl)-5,6,7,8-tetrahydroquinoline-5-carboxamide]", "IC50": "0.101 to 0.3"}, {"smiles": "O=C(NCc1ccc(OC(F)(F)F)cc1F)[C@]1(F)CC[C@H](O)c2ncccc21", "note": "[Example 207, (5S,8S)-5-fluoro-N-(2-fluoro-4-(trifluoromethoxy)benzyl)-8-hydroxy-5,6,7,8-tetrahydroquinoline-5-carboxamide]", "IC50": "0.101 to 0.3"}, {"smiles": "O=C(NCc1ccc(F)cc1F)[C@@]1(F)CC[C@@H](O)c2ncccc21", "note": "[Example 140, (5R,8R)-N-(2,4-difluorobenzyl)-5-fluoro-8-hydroxy-5,6,7,8-tetrahydroquinoline-5-carboxamide]", "IC50": "0.301 to 1"}]}]}
